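Growth conditions: 96-well plates. Treatment: test compound, 48 hours, 5 concentrations. Analysis: linear interpolation between bracketing concentrations; unreached endpoints set to highest concentration. Abbreviation: GI50, concentration required for 50% inhibition of growth.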 Activity calls are given as the source filed them. No stated cut-off is given here; in the data, active = GI50 up to about 1.1 µM and inactive = higher.
Legend:
Assay in all cases: NCI-60 cell line screen, 48 h
[1] = test system: HCT-15
[2] = test system: U-251
[3] = test system: SN12C
[4] = test system: SR
[5] = test system: SK-OV-3
[6] = test system: IGROV-1
[7] = test system: SK-MEL-28
[8] = test system: SNB-75
[9] = test system: M19-MEL
[10] = test system: CAKI-1
[11] = test system: LOX IMVI
[12] = test system: M14
[13] = test system: RPMI-8226
[14] = test system: TK-10
[15] = test system: RXF 393
[16] = test system: HL-60
[17] = test system: BT-549
[18] = test system: MDA-MB-435
[19] = test system: MDA-MB-231
[20] = test system: NCI/ADR-RES

Row | Compound | GI50 [1] [µM] | GI50 [2] | GI50 [3] | GI50 [4] | GI50 [5] | GI50 [6] | GI50 [7] | GI50 [8] | GI50 [9] | GI50 [10] | GI50 [11] | GI50 [12] | GI50 [13] | GI50 [14] | GI50 [15] | GI50 [16] | GI50 [17] | GI50 [18] | GI50 [19] | GI50 [20]
1 | FC(F)(F)c1nc2ccc3[nH]c4c(-c5ccccc5)nccc4c3c2[nH]1 | > 100 | > 100 µM (inactive) | > 100 µM (inactive) | 17.9 µM (inactive) | > 100 µM (inactive) | > 100 µM (inactive) | > 100 µM (inactive) | > 100 µM (inactive) | > 100 µM (inactive) | > 100 µM (inactive) | > 46.8 µM (inactive) | > 100 µM (inactive) | > 42.9 µM (inactive) | > 100 µM (inactive) | > 100 µM (inactive) | 97.5 µM (inactive) | – | – | – | –
2 | O=C(O/N=C1/CCCC/C1=C\c1ccccc1)c1ccc(Cl)cc1 | > 100 | 89.3 µM (inactive) | > 100 µM (inactive) | 56.6 µM (inactive) | > 100 µM (inactive) | > 100 µM (inactive) | > 100 µM (inactive) | 88.7 µM (inactive) | > 100 µM (inactive) | 84.5 µM (inactive) | 57.8 µM (inactive) | > 100 µM (inactive) | > 100 µM (inactive) | > 100 µM (inactive) | > 100 µM (inactive) | 24.7 µM (inactive) | – | – | – | –
3 | C=C1C(=O)C23C(O)C1CC[C@H]2C12CCCC(C)(COC(C)=O)[C@H]1[C@H](O)[C@]3(O)OC2 (stereo partly specified) | 0.817 | 2.21 µM (inactive) | 1.71 µM (inactive) | – | 4.63 µM (inactive) | 2.08 µM (inactive) | 1.14 µM (inactive) | 1.53 µM (inactive) | 2.01 µM (inactive) | 1.16 µM (inactive) | 1.52 µM (inactive) | 1.1 µM (active) | 0.318 µM (active) | 1.63 µM (inactive) | 0.407 µM (active) | 0.279 µM (active) | 1.48 µM (inactive) | – | – | –
4 | CC1(Cl)C(=O)NC(=O)N([C@H]2C[C@H](O)[C@@H](CO)O2)C1N=[N+]=[N-] (stereo partly specified) | > 100 | > 100 µM (inactive) | > 100 µM (inactive) | > 100 µM (inactive) | > 100 µM (inactive) | > 100 µM (inactive) | > 61.1 µM (inactive) | > 100 µM (inactive) | > 100 µM (inactive) | > 100 µM (inactive) | > 100 µM (inactive) | > 100 µM (inactive) | > 100 µM (inactive) | > 100 µM (inactive) | > 100 µM (inactive) | > 100 µM (inactive) | – | – | – | –
5 | CC(=O)c1cc2c3c(c1)c1cc4c(cc1c(=O)n3CC2)OCO4 | 19.8 | 27 µM (inactive) | 16.8 µM (inactive) | 4.32 µM (inactive) | > 100 µM (inactive) | 28.8 µM (inactive) | 65.3 µM (inactive) | 34.4 µM (inactive) | 34 µM (inactive) | 20.8 µM (inactive) | 13.9 µM (inactive) | 59.7 µM (inactive) | 17.6 µM (inactive) | 21.2 µM (inactive) | 32.4 µM (inactive) | 39.3 µM (inactive) | – | – | – | –
6 | CC1(C)OCN(c2ccc(N3CCOCC3)cc2)Cn2c1nc1ccccc12 | > 100 | > 100 µM (inactive) | > 100 µM (inactive) | 31.2 µM (inactive) | > 100 µM (inactive) | > 100 µM (inactive) | > 100 µM (inactive) | > 100 µM (inactive) | > 100 µM (inactive) | – | 31.8 µM (inactive) | > 100 µM (inactive) | 27.9 µM (inactive) | > 100 µM (inactive) | 39.1 µM (inactive) | 26.4 µM (inactive) | – | – | – | –
7 | O=S(=O)(N/N=C/c1ccc(Cl)c(Cl)c1)c1ccccc1 | 36.1 | 33.7 µM (inactive) | 37.7 µM (inactive) | 42.3 µM (inactive) | 39.7 µM (inactive) | 33.3 µM (inactive) | 72.3 µM (inactive) | 52 µM (inactive) | 37.3 µM (inactive) | 33.2 µM (inactive) | 43.9 µM (inactive) | 60.3 µM (inactive) | 47 µM (inactive) | 41.7 µM (inactive) | 18.5 µM (inactive) | 26.6 µM (inactive) | – | – | – | –
8 | CC(=O)OC12CCCCC1C1(CCCC1)NC2=O (stereo unspecified) | > 100 | > 100 µM (inactive) | > 100 µM (inactive) | > 100 µM (inactive) | > 100 µM (inactive) | > 100 µM (inactive) | > 100 µM (inactive) | > 100 µM (inactive) | > 100 µM (inactive) | – | > 100 µM (inactive) | > 100 µM (inactive) | > 100 µM (inactive) | > 100 µM (inactive) | > 100 µM (inactive) | > 100 µM (inactive) | – | – | – | –
9 | CC(C)[C@@H]1C=C(c2ccccc2)c2ccccc2C1C(C#N)(C#N)C(C)C (stereo partly specified) | > 100 | > 100 µM (inactive) | > 100 µM (inactive) | 46.3 µM (inactive) | > 100 µM (inactive) | > 100 µM (inactive) | > 100 µM (inactive) | > 100 µM (inactive) | > 100 µM (inactive) | – | > 100 µM (inactive) | > 100 µM (inactive) | 19 µM (inactive) | > 100 µM (inactive) | > 100 µM (inactive) | 31.7 µM (inactive) | – | – | – | –
10 | Cc1cc(O)nc(NN2C(Cl)C(=O)C2c2ccc(Cl)cc2)n1 (stereo unspecified) | 15.1 | 20.5 µM (inactive) | 16.7 µM (inactive) | 1.27 µM (inactive) | 41.8 µM (inactive) | 3.61 µM (inactive) | 18.2 µM (inactive) | 17.4 µM (inactive) | 17.7 µM (inactive) | 15.7 µM (inactive) | 4.15 µM (inactive) | 13.4 µM (inactive) | 8.55 µM (inactive) | 19.8 µM (inactive) | 17.4 µM (inactive) | 3.18 µM (inactive) | 20.5 µM (inactive) | 23.4 µM (inactive) | 26.4 µM (inactive) | 20.7 µM (inactive)

From ChEMBL document CHEMBL1201862, “PubChem BioAssay data set” (2004)
